Measured values as given in US8957033B2, “Inhibitor of sodium-dependent glucose transport protein and preparation method therefor and use thereof” (Beijing Prelude Pharm. SCI. & Tech. Co., Ltd., priority 2011, dated 2015).

How the values were obtained:
male SD rats [1] = test: Oral glucose tolerance test, glucose 15 minutes after administration (Example 5); assay type: in vivo; conditions: 10 mg/kg orally; for Blood glucose / ΔAUC: Mean ± SD; for Effect on blood glucose level (in words): compared with the blank control group
Protocol: Compound 1, compound 2 and compound 3 were respectively dissolved in blank solutions (5% 1-methyl-2-pyrrolidinone, 20% PEG-400 and 20 mM sodium diphosphate) in the concentration of 10 g/L.
Experimental animals are male SD rats of 6-8 weeks old, with weight of 190-215 g, which were purchased from Beijing Vital River Laboratory Animal Technology Co., Ltd. The SD rats were randomly divided into four groups based on body weight, each group containing three rats. Wherein group 1 is the blank control group in which the rats were administrated with the above blank solution.
Before the test, the rats were fasted for 16 hours and then administrated orally with the blank solution or compounds. The blood glucose baseline level was measured at 15 minutes after administration, then the rats in each group were administrated orally with 50% glucose aqueous solution in an amount of 2 g/kg. The blood samples (1 drop) were taken from tail veins of rats in each group at 15 minutes, 30 minutes, 1 hour and 2 hours after oral administration of glucose, and the blood glucose level was measured by using Accu-Chek Aviva system.
(§1) Statistical analysis was conducted and the significance level was set to be P<0.05. The mean and standard deviation were calculated for all measurement parameters which were designed for study. One-way analysis of variance (ANOVA) was performed by software GraphPad Prism 5.0 after multiple comparisons among groups.

[2] = Stability test in vitro, male rat liver microsomes with NADPH; conditions: 2 μM, NADPH 1 mM, 37° C.
Protocol: (§4) 1) Master solution was prepared according to Table 1, and then the test compounds and control compound were added into the master solution, with the final concentration of these compounds in the reaction system being 2 μM. Then the mixed solution was preheated at 37° C. for 2 minutes.
(§5) 2) NADPH was added into the mixed solution with the final concentration of NADPH being 1 mM, and then the reaction system was incubated at 37° C. The blank control was also added with the same volume of ultrapure water instead of NADPH.
(§6) 3) 50 μL aliquots were taken out from the reaction system at 0, 15, 30, 45 and 60 minutes, and added with 3 volumes of cold methanol to terminate the reaction. The aliquot was centrifugated for 10 minutes under 16000 g to precipitate proteins. 100 μL of supernatant was used for LC/MS/MS analysis, to determine the amounts of the remaining test compounds and the control compound. The aliquots were detected in duplicate.
(§7) The instruments and conditions for LC analysis were as follows:
(§8) Shimadzu (Degasser DGU—20A3, Solvent Delivery Unit LC—20ADXR, System Controller CBM—20A, Column Oven CTO—10ASVP), CTC Analytics HTC PAL—XT System
(§9) Column: Phenomenex 5μ C 18 (2) (2.0×50 mm)
(§10) The instrument and conditions for MS/MS analysis were as follows: • AB API4000 LC/MS/MS instrument • Source: Turbo spray • Ionization mode: ESI • Type of scan: MRM • Collision gas: 6 L/min; curtain gas: 30 L/min; atomized gas: 50 L/min; auxiliary gas: 50 L/min; temperature: 500° C.; spray voltage: 4500 v.

male SD rats [3] = test: Urine glucose at end of glucose tolerance test (Example 6); assay type: in vivo; conditions: for Urine glucose: 10 mg/kg orally, urine collected at end of glucose tolerance test, Mean ± SD
Protocol: (§2) Preparation of the administrated drugs, and grouping and administration of the animals were the same as those in Example 5.
(§3) Before the test, the rats were fasted for 16 hours and then administrated orally with the blank solution or compounds. The blood glucose baseline level was measured at 8 hours after administration, then the rats in each group were administrated orally with 50% glucose aqueous solution in an amount of 2 g/kg. The blood samples (1 drop) were taken from tail veins of rats in each group at 15 minutes, 30 minutes, 1 hour and 2 hours after oral administration of glucose, and the blood glucose level was measured by using Accu-Chek Aviva system.
At the end of the test, urine of the rats in each group was collected, and then the urine glucose level was analyzed by using TOSHIBA TBA-40FR automatic biochemical analyzer.
as §1

[4] = Pharmacokinetic test in vivo in SD rats; set-up: species or system male SD rats; conditions: 10 mg/kg; for AUC(0-inf) / AUC(0-t) / C0 / MRT / half-life / Tmax / bioavailability: male, rat, plasma; for bioavailability: read-out: F (oral bioavailability)
Protocol: Compound 1, compound 2 and compound 3 were respectively dissolved in blank solution (5% 1-methyl-2-pyrrolidinone, 20% PEG-400 and 20 mM sodium diphosphate) in a concentration of 10 g/L.
Experimental animals are male SD rats of 6-8 weeks old, with weight of 190-215 g, which were purchased from Beijing Vital River Laboratory Animal Technology Co., Ltd. The SD rats were randomly divided into seven groups based on body weight, each group containing three rats. Wherein group 1 is the blank control group in which the blank solution was administrated intravenously.
Before the pharmacokinetic test, the SD rats were fasted for 16 hours, and then administrated intravenously (1 mL/kg; 10 mg/kg) or orally (1 mL/kg; 10 mg/kg) with single dose of the compound or blank solution according to Table 4. After administration 200 uL blood samples were collected regularly through jugular vein puncture, wherein for the group of animals administered intravenously, blood samples were collected at 0 minute, 15 minutes, 30 minutes, 1 hour, 2 hours, 4 hours, 8 hours and 24 hours after administration; for the group of animals administered orally, blood samples were collected at 0 minute, 15 minutes, 30 minutes, 45 minutes, 75 minutes, 135 minutes, 4 hours, 8 hours and 24 hours after administration. The blood samples were collected in a sample tube with EDTA, and immediately centrifuged under 4000 rpm for 0.5 minutes at 4° C., and then the plasma was transferred to another sample tube and stored at −20° C.
The method and instruments for pharmacokinetics test of samples were as follows: • HPLC: Shimadzu (DGV-20A3, Serial NO: SSI-3-0536; LC-20AD Serial NO: • L20104551674 USB and L20104551673 USB), CTC Analytics HTC PAL System (Serial NO: 4353); • MS: AB API4000 Q Trap LC/MS/MS instrument (Serial NO. AR19020706) • Column: Phenomenex Luna 5μ C18 (2.0×50 mm) • Mobile phase: 100% acetonitrile (2 mM ammonium acetate) and 100% water (2 mM ammonium acetate) • Quantitative Method: internal standard method

male SD rats [5] = test: Oral glucose tolerance test, glucose 8 hours after administration (Example 6), blood glucose; assay type: in vivo; conditions: for Blood glucose / ΔAUC: 10 mg/kg orally, Mean ± SD; for Effect on blood glucose level (in words): glucose at 8 hours after administration, compared with the blank control group
Protocol: as §2, §3, §1

[6] = Stability test in vitro, human liver microsomes with NADPH; conditions: 2 μM, NADPH 1 mM, 37° C.
Protocol: as §4, §5, §6, §7, §8, §9, §10

[7] = glucose 2 g/kg 15 minutes after administration, 15 minutes after glucose
[8] = glucose 2 g/kg 15 minutes after administration, 30 minutes after glucose
[9] = glucose 2 g/kg 15 minutes after administration, 1 hour after glucose
[10] = glucose 2 g/kg 15 minutes after administration, 2 hours after glucose
[11] = glucose 2 g/kg 15 minutes after administration
[12] = time 0 (baseline 15 minutes after administration, before glucose 2 g/kg)
[13] = iv, administrated intravenously
[14] = glucose 2 g/kg 8 hours after administration, 15 minutes after glucose
[15] = glucose 2 g/kg 8 hours after administration, 30 minutes after glucose
[16] = glucose 2 g/kg 8 hours after administration, 1 hour after glucose
[17] = glucose 2 g/kg 8 hours after administration, 2 hours after glucose
[18] = glucose 2 g/kg 8 hours after administration
[19] = time 0 (baseline 8 hours after administration, before glucose 2 g/kg)

OC[C@H]1O[C@@H](c2ccc(Cl)c(Cc3ccc(OCC(F)(F)F)cc3)c2)[C@H](O)[C@@H](O)[C@@H]1O [Compound 2]
Blood glucose (male SD rats [1]; [7]): 126.6 ± 26.11 mg/dL | Blood glucose (male SD rats [1]; [8]): 143.4 ± 24.44 mg/dL | Blood glucose (male SD rats [1]; [9]): 138.6 ± 17.17 mg/dL | Blood glucose (male SD rats [1]; [10]): 97.2 ± 13.59 mg/dL | ΔAUC (male SD rats [1]; [11]): 77.2 ± 20.44 mg·h/dL | Blood glucose (male SD rats [1]; [12]): 85.8 ± 2.75 mg/dL | Effect on blood glucose level (in words) (male SD rats [1]): effect of lowering blood glucose level | Residual percentage of compounds in rat liver microsome ([2]; sampling time 0 minute): 100.00% | Residual percentage of compounds in rat liver microsome ([2]; sampling time 15 minutes): 88.20% | Residual percentage of compounds in rat liver microsome ([2]; sampling time 30 minutes): 94.51% | Residual percentage of compounds in rat liver microsome ([2]; sampling time 45 minutes): 91.65% | Residual percentage of compounds in rat liver microsome ([2]; sampling time 60 minutes): 88.27% | Urine glucose (male SD rats [3]): 197.90 ± 56.27 mmol/L | Urine glucose level (in words) (male SD rats [3]; compared to the blank control group, oral administration): significantly increased | CI_obs ([4]; administrated intravenously): 1.59 mL/min/kg | Vss_obs ([4]; administrated intravenously): 1.18 L/kg | AUC(0-inf) [4, 13]: 107000 ng·h/mL | AUC(0-t) [4, 13]: 87800 ng·h/mL | C0 [4, 13]: 11300 ng/mL | MRT [4, 13]: 7.35 h | half-life [4, 13]: 9.8 h | AUC(0-inf) ([4]; po, administrated orally): 193000 ng·h/mL | AUC(0-t) ([4]; po, administrated orally): 77300 ng·h/mL | C0 ([4]; po, administrated orally): 5090 ng/mL | Tmax ([4]; po, administrated orally): 1.25 h | half-life ([4]; po, administrated orally): 30 h | bioavailability ([4]; po, administrated orally): 88% | Blood glucose (male SD rats [5]; [14]): 103.20 ± 12.64 mg/dL | Blood glucose (male SD rats [5]; [15]): 154.20 ± 2.75 mg/dL | Blood glucose (male SD rats [5]; [16]): 141.00 ± 2.08 mg/dL | Blood glucose (male SD rats [5]; [17]): 85.20 ± 1.04 mg/dL | ΔAUC (male SD rats [5]; [18]): 115.00 ± 3.55 mg·h/dL | Blood glucose (male SD rats [5]; [19]): 62.40 ± 2.75 mg/dL | Effect on blood glucose level (in words) (male SD rats [5]): effect of lowering blood glucose level | Residual percentage of compounds in human liver microsome ([6]; sampling time 0 minute): 100.00% | Residual percentage of compounds in human liver microsome ([6]; sampling time 15 minutes): 80.84% | Residual percentage of compounds in human liver microsome ([6]; sampling time 30 minutes): 78.78% | Residual percentage of compounds in human liver microsome ([6]; sampling time 45 minutes): 76.73% | Residual percentage of compounds in human liver microsome ([6]; sampling time 60 minutes): 75.34%

OC[C@H]1O[C@@H](c2ccc(Cl)c(C(F)(F)c3ccc(OCC(F)(F)F)cc3)c2)[C@H](O)[C@@H](O)[C@@H]1O [Compound 3]
Blood glucose (male SD rats [1]; [7]): 143.4 ± 18.91 mg/dL | Blood glucose (male SD rats [1]; [8]): 172.8 ± 25.01 mg/dL | Blood glucose (male SD rats [1]; [9]): 148.2 ± 11.98 mg/dL | Blood glucose (male SD rats [1]; [10]): 88.8 ± 17.11 mg/dL | ΔAUC (male SD rats [1]; [11]): 87.6 ± 15.90 mg·h/dL | Blood glucose (male SD rats [1]; [12]): 90.0 ± 13.59 mg/dL | Effect on blood glucose level (in words) (male SD rats [1]): effect of lowering blood glucose level | Residual percentage of compounds in rat liver microsome ([2]; sampling time 0 minute): 100.00% | Residual percentage of compounds in rat liver microsome ([2]; sampling time 15 minutes): 99.00% | Residual percentage of compounds in rat liver microsome ([2]; sampling time 30 minutes): 92.49% | Residual percentage of compounds in rat liver microsome ([2]; sampling time 45 minutes): 97.25% | Residual percentage of compounds in rat liver microsome ([2]; sampling time 60 minutes): 108.11% | Urine glucose (male SD rats [3]): 0.10 ± 0.17 mmol/L | CI_obs ([4]; administrated intravenously): 0.75 mL/min/kg | Vss_obs ([4]; administrated intravenously): 1.56 L/kg | AUC(0-inf) [4, 13]: 260000 ng·h/mL | AUC(0-t) [4, 13]: 113000 ng·h/mL | C0 [4, 13]: 6640 ng/mL | MRT [4, 13]: 10.1 h | half-life [4, 13]: 28.3 h | AUC(0-inf) ([4]; po, administrated orally): 44700 ng·h/mL | AUC(0-t) ([4]; po, administrated orally): 20800 ng·h/mL | C0 ([4]; po, administrated orally): 1400 ng/mL | Tmax ([4]; po, administrated orally): 8 h | half-life ([4]; po, administrated orally): 20.4 h | bioavailability ([4]; po, administrated orally): 17.2% | Blood glucose (male SD rats [5]; [14]): 148.80 ± 9.06 mg/dL | Blood glucose (male SD rats [5]; [15]): 198.60 ± 8.51 mg/dL | Blood glucose (male SD rats [5]; [16]): 183.00 ± 12.25 mg/dL | Blood glucose (male SD rats [5]; [17]): 128.40 ± 3.75 mg/dL | ΔAUC (male SD rats [5]; [18]): 144.40 ± 18.72 mg·h/dL | Blood glucose (male SD rats [5]; [19]): 90.00 ± 1.80 mg/dL | Effect on blood glucose level (in words) (male SD rats [5]): effect of lowering blood glucose level | Residual percentage of compounds in human liver microsome ([6]; sampling time 0 minute): 100.00% | Residual percentage of compounds in human liver microsome ([6]; sampling time 15 minutes): 105.74% | Residual percentage of compounds in human liver microsome ([6]; sampling time 30 minutes): 98.43% | Residual percentage of compounds in human liver microsome ([6]; sampling time 45 minutes): 101.18% | Residual percentage of compounds in human liver microsome ([6]; sampling time 60 minutes): 97.89%
